Tests used:
Chikungunya virus [1] = assay: Antiviral activity against Chikungunya virus infected in African green monkey Vero cells after 72 hrs by MTT dye-based assay; format: functional, organism-based
[2] = Cytotoxicity against African green monkey Vero cells assessed as reduction in cell viability measured on day 6 to 7 post infection by MTS dye-based microscopic analysis; settings: chlorocebus sabaeus
Chikungunya virus [3] = assay: Antiviral activity against Chikungunya virus infected in African green monkey Vero cells assessed as inhibition of virus-induced cytopathogenic effect measured on day 6 to 7 post infection by MTS dye-based microscopic analysis; format: functional, organism-based; settings: 144 h
[4] = Selectivity index, ratio of CC50 for BHK cells to IC50 for Chikungunya virus LR2006 OPY1; format: toxicity; settings: hamster, read-out: Ratio CC50/IC50
[5] = Cytotoxicity against BHK cells assessed as reduction in cell viability after 48 hrs in presence of ATP by Celltiter-Glo luminescent assay; format: cell-based, Mesocricetus auratus; settings: hamster
Chikungunya virus [6] = assay: Antiviral activity against Chikungunya virus LR2006 OPY1 infected in BHK cells measured at 14 hrs post infection by luciferase reporter gene assay; format: functional, organism-based
[7] = Cytotoxicity against African green monkey Vero cells assessed as reduction in cell viability after 18 hrs by […]; format: cell-based; settings: chlorocebus sabaeus
Chikungunya virus [8] = assay: Antiviral activity against Chikungunya virus 899 infected in African green monkey Vero cells by MTS assay; format: functional, organism-based; settings: Chikungunya virus, 899, Vero
[9] = Selectivity index, ratio of CC50 for African green monkey Vero cells to EC50 for Chikungunya virus 899; format: toxicity; settings: read-out: Ratio CC50/EC50
Chikungunya virus [10] = assay: Antiviral activity against Chikungunya virus KC969208 infected in African green monkey Vero cells after 48 hrs by MTT dye-based assay; format: functional, organism-based
[11] = Selectivity index, ratio of CC50 for African green monkey Vero cells to IC50 for Chikungunya virus KC969208; format: toxicity; settings: read-out: Ratio CC50/IC50
[12] = Selectivity index, ratio of CC50 for African green monkey Vero cells to IC50 for Chikungunya virus MY/065/08/FN295485; format: toxicity; settings: read-out: Ratio IC50
Chikungunya virus [13] = assay: Antiviral activity against Chikungunya virus MY/065/08/FN295485 infected in African green monkey Vero cells assessed as reduction in virus yield after 48 hrs by titration assay; format: functional, organism-based; settings: MY/065/08/FN295485, Vero
Chikungunya virus [14] = assay: Antiviral activity against Chikungunya virus 899 infected in African green monkey Vero cells assessed as inhibition of virus-induced cytopathogenic effect measured on day 5 post infection by MTS/PMS based microscopic analysis; format: functional, organism-based; settings: Chikungunya virus, 899, Vero, 120 h
Vero = assay: Cytotoxicity against African green monkey Vero cells assessed as reduction in cell viability measured on day 5 post dose by MTS/PMS based microscopic analysis; settings: chlorocebus sabaeus
[15] = Binding affinity to Chikungunya virus […]
Chikungunya virus [16] = assay: Antiviral activity against Chikungunya virus LR2006-OPY1 infected in BHK21 cells after 48 hrs by luciferase reporter gene assay; format: functional, organism-based; settings: LR2006-OPY1, BHK-21, 48 h
[17] = Cytotoxicity against BHK21 cells in presence of ATP by Celltiter-Glo assay; format: cell-based, Mesocricetus auratus; settings: hamster, BHK-21 cells
[18] = Selectivity index, ratio of CC50 for BHK21 cells to EC50 for Chikungunya virus; format: toxicity; settings: hamster, BHK-21 cells; read-out: Ratio CC50/EC50
[19] = Selectivity index, ratio of CC50 for human Huh7.5 cells to EC50 for Chikungunya virus; format: toxicity; settings: read-out: Ratio CC50/EC50
Chikungunya virus [20] = assay: Antiviral activity against Chikungunya virus LR2006-OPY1 infected in human Huh7.5 cells after 48 hrs by luciferase reporter gene assay; format: functional, organism-based; settings: LR2006-OPY1, Huh7.5, 48 h
[21] = Cytotoxicity against human Huh7.5 cells in presence of ATP by Celltiter-Glo assay; format: cell-based

COc1cc(C2Oc3cc([C@H]4Oc5cc(O)cc(O)c5C(=O)[C@@H]4O)ccc3OC2CO)ccc1O (stereo not given in full) [SILIBININ] showed an IC50 (Chikungunya virus [1]) of 22.5 to 127 µM.
For C=C(C)[C@@]1(Oc2ccccc2)[C@@H]2OC3(c4ccccc4)O[C@H]1[C@@H](C)[C@]1(O3)C3=CC(=C(Cl)Cl)[C@H](c4ccccc4)[C@@]3(O)C[C@@]3(C)O[C@H]3[C@@H]21, the CC50 [2] was 23.1 µM and the EC50 (Chikungunya virus [3]) was 3 µM.
Work on CCN(CC)C(C)CN1c2ccccc2Sc2ccccc21 (stereo not given) [ETHOPROPAZINE] yielded a selectivity ratio [4] of 10.4, a CC50 at 48 h [5] of 167 µM and an IC50 (Chikungunya virus [6]) of 16 µM.
In the case of Cc1ccc(S(=O)(=O)Oc2ccc3c(CSC4=NCCC(=O)N4)cc(=O)oc3c2)cc1, the CC50 at 18 h [7] is reported as 60.2 µM, the EC50 (Chikungunya virus [8]) is reported as 23.1 µM and the selectivity ratio [9] is reported as 2.6.
With CCCCCCCCCCCCCCCCCOC(=O)c1ccccc1C(=O)O the IC50 (Chikungunya virus [10]) was 76.5 µM and the selectivity ratio [11] was 4.66.
In the case of Cc1ccc(COc2ccc3c(CSc4ncc(C)c(=O)[nH]4)cc(=O)oc3c2)cc1, the EC50 (Chikungunya virus [8]) is reported as > 48 µM.
In the case of C=C(C)[C@@]1(Oc2ccccc2)[C@@H]2OC3(c4ccccc4)O[C@H]1[C@@H](C)[C@]1(O3)C3=CC(=C(Cl)Cl)C[C@@]3(O)C[C@@]3(Cc4ccccc4)O[C@H]3[C@@H]21, the CC50 [2] is reported as 93 µM and the EC50 (Chikungunya virus [3]) is reported as 2.6 µM.
CN(C)CCCN1c2ccccc2Sc2ccc(Cl)cc21 [CHLORPROMAZINE] showed a selectivity ratio [4] of 4.5, a CC50 at 48 h [5] of 67.3 µM and an IC50 (Chikungunya virus [6]) of 15.7 µM.
O=c1c(O)c(-c2ccc(O)c(O)c2)oc2cc(O)ccc12 [FISETIN] showed a selectivity ratio [12] of 23 and an IC50 (Chikungunya virus [13]) of 29.5 µM.
Molecule O=C1CCN=C(SCc2cc(=O)oc3cc(OS(=O)(=O)c4ccccc4[N+](=O)[O-])ccc23)N1 has a CC50 at 18 h [7] of 75.2 µM, an EC50 (Chikungunya virus [8]) of 13 µM and a selectivity ratio [9] of 5.8.
For O=C1CCN=C(SCc2cc(=O)oc3cc(OS(=O)(=O)c4ccccc4)ccc23)N1, the EC50 (Chikungunya virus [8]) was 57.4 µM.
With CN1CCN(c2nc(C3=C(c4c[nH]c5ccccc45)C(=O)NC3=O)c3ccccc3n2)CC1 [SOTRASTAURIN] the EC50 (Chikungunya virus [14]) was > 66 µM and the CC50 (Vero) was 66 µM.
For O=C(O)[C@H]1O[C@@H](Oc2cc3oc(-c4ccccc4)cc(=O)c3c(O)c2O)[C@H](O)[C@@H](O)[C@@H]1O [BAICALIN], the Ki [15] was 0.064 µM, the selectivity ratio [12] was 188 and the IC50 (Chikungunya virus [13]) was 7 µM.
Molecule Cc1ccc(S(=O)(=O)Oc2ccc3c(CSc4nc5ccc(C)cc5c(=O)[nH]4)cc(=O)oc3c2)cc1 has a CC50 at 18 h [7] of 114 µM, an EC50 (Chikungunya virus [8]) of 26.4 µM and a selectivity ratio [9] of 4.3.
Molecule CCSc1ccc2c(c1)N(CCCN1CCN(C)CC1)c1ccccc1S2 [THIETHYLPERAZINE] has a selectivity ratio [4] of 5.5, a CC50 at 48 h [5] of 83.1 µM and an IC50 (Chikungunya virus [6]) of 15 µM.
Work on Cc1ccc2nc(SCc3cc(=O)oc4cc(OS(=O)(=O)c5ccccc5)ccc34)[nH]c(=O)c2c1 yielded a CC50 at 18 h [7] of 126 µM, an EC50 (Chikungunya virus [8]) of 58 µM and a selectivity ratio [9] of 2.2.
Work on CC1CCCCCCCC(C)C(=O)O[C@H]2/C(=C/Cl)C=C3[C@]45OC6(c7ccccc7)O[C@H]([C@@H]4[C@@H]4O[C@]4(CO)C[C@@]32O)[C@@](O)([C@@H](O6)[C@H]5C)C(O)(COC(=O)c2ccccc2)C1 (stereo not given in full) yielded a CC50 [2] of 10.5 µM and an EC50 (Chikungunya virus [3]) of 3.9 µM.
O=c1cc(-c2ccccc2)oc2cc(O)cc(O)c12 [CHRYSIN] showed an IC50 (Chikungunya virus [1]) of 22.5 to 127 µM.
In the case of O=C1CCN=C(SCc2cc(=O)oc3cc(OS(=O)(=O)c4ccc([N+](=O)[O-])cc4)ccc23)N1, the EC50 (Chikungunya virus [8]) is reported as > 205 µM.
In the case of CN(C)CC1CCn2c(cc3ccc(C4=C(c5cn(C)c6ccccc56)C(=O)NC4=O)cc32)C1 (stereo not given), the EC50 (Chikungunya virus [14]) is reported as > 6 µM and the CC50 (Vero) is reported as 35 µM.
In the case of CC1CCCCCCCC(C)C(=O)O[C@H]2/C(=C/Cl)C=C3[C@]45OC6(c7ccccc7)O[C@H]([C@@H]4[C@@H]4O[C@]4(CO)C[C@@]32O)[C@@](O)([C@@H](O6)[C@H]5C)C(C)(O)C1 (stereo not given in full), the CC50 [2] is reported as 5.3 µM and the EC50 (Chikungunya virus [3]) is reported as 2.5 µM.
Molecule Cc1ccc2nc(SCc3cc(=O)oc4cc(OS(=O)(=O)c5ccccc5[N+](=O)[O-])ccc34)[nH]c(=O)c2c1 has a CC50 at 18 h [7] of 107 µM, an EC50 (Chikungunya virus [8]) of 19 µM and a selectivity ratio [9] of 5.6.
O=c1cc(-c2ccc(O)cc2)oc2cc(O)cc(O)c12 [APIGENIN] gave an IC50 (Chikungunya virus [1]) of 22.5 to 127 µM.
For CC[C@H](C)[C@H]1O[C@]2(CC[C@@H]1C)C[C@@H]1C[C@@H](C/C=C(\C)[C@@H](O[C@H]3C[C@H](OC)[C@@H](O[C@H]4C[C@H](OC)[C@@H](O)[C@H](C)O4)[C@H](C)O3)[C@@H](C)/C=C/C=C3\CO[C@]4(O)[C@H](O)C(C)=C[C@@H](C(=O)O1)[C@]34O)O2, the EC50 (Chikungunya virus [16]) was 0.6 µM, the CC50 [17] was 37.9 µM and the selectivity ratio [18] was 62.4. It also gave a selectivity ratio [19] of 4.1, an EC50 (Chikungunya virus [20]) of 1.9 µM and a CC50 [21] of 8 µM.
